Assay results: ChEMBL document CHEMBL1201862, “PubChem BioAssay data set” (2004)
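The compound was tested at five concentrations on cells cultured in 96-well plates, with a 48-hour exposure period. The concentration for 50% growth inhibition is given as GI50.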 Activity calls are given as the source filed them. Rule as the data show it: active = GI50 up to about 1.1 µM and inactive = higher.

Experiments:
Assay in all cases: NCI tumour cell line growth inhibition, 48 h
A498 = tested on: A498
EKVX = tested on: EKVX
Hs-578T = tested on: Hs-578T
IGROV-1 = tested on: IGROV-1
KM-20L2 = tested on: KM-20L2
KM12 = tested on: KM12
LOX IMVI = tested on: LOX IMVI
MDA-MB-435 = tested on: MDA-MB-435
NCI-H226 = tested on: NCI-H226
NCI/ADR-RES = tested on: NCI/ADR-RES
OVCAR-5 = tested on: OVCAR-5
RXF 393 = tested on: RXF 393
SF-295 = tested on: SF-295
SN12C = tested on: SN12C
SNB-19 = tested on: SNB-19
SNB-75 = tested on: SNB-75
TK-10 = tested on: TK-10
U-251 = tested on: U-251
UACC-62 = tested on: UACC-62
UO-31 = tested on: UO-31

SMILES: CCOC(C/N=c1/nc(N(C)C)ss1)OCC
- GI50 (A498): > 82.8 µM (inactive)
- GI50 (EKVX): 34.1 µM (inactive)
- GI50 (Hs-578T): > 54.8 µM (inactive)
- GI50 (IGROV-1): > 27.5 µM (inactive)
- GI50 (KM-20L2): 27.7 µM (inactive)
- GI50 (KM12): 4.61 µM (inactive)
- GI50 (LOX IMVI): 16.3 µM (inactive)
- GI50 (MDA-MB-435): 1.91 µM (inactive)
- GI50 (NCI-H226): 24.6 µM (inactive)
- GI50 (NCI/ADR-RES): > 100 µM (inactive)
- GI50 (OVCAR-5): 19.5 µM (inactive)
- GI50 (RXF 393): 19 µM (inactive)
- GI50 (SF-295): 22.2 µM (inactive)
- GI50 (SN12C): 19.2 µM (inactive)
- GI50 (SNB-19): > 67.1 µM (inactive)
- GI50 (SNB-75): 27.6 µM (inactive)
- GI50 (TK-10): 33.3 µM (inactive)
- GI50 (U-251): 16 µM (inactive)
- GI50 (UACC-62): 1.17 µM (inactive)
- GI50 (UO-31): 43.5 µM (inactive)

SMILES: Cc1ccccc1C1OC(=O)c2ccccc21 (stereo not given)
- GI50 (A498): > 100 µM (inactive)
- GI50 (EKVX): > 100 µM (inactive)
- GI50 (IGROV-1): > 100 µM (inactive)
- GI50 (KM-20L2): > 100 µM (inactive)
- GI50 (KM12): > 100 µM (inactive)
- GI50 (LOX IMVI): > 100 µM (inactive)
- GI50 (NCI-H226): > 100 µM (inactive)
- GI50 (OVCAR-5): > 100 µM (inactive)
- GI50 (RXF 393): > 100 µM (inactive)
- GI50 (SN12C): > 100 µM (inactive)
- GI50 (SNB-19): > 100 µM (inactive)
- GI50 (SNB-75): 77.3 µM (inactive)
- GI50 (TK-10): > 100 µM (inactive)
- GI50 (U-251): > 100 µM (inactive)
- GI50 (UACC-62): 56.1 µM (inactive)
- GI50 (UO-31): > 100 µM (inactive)

SMILES: CSc1nnc(C(C#N)C#N)nn1
- GI50 (A498): > 100 µM (inactive)
- GI50 (EKVX): > 100 µM (inactive)
- GI50 (IGROV-1): > 100 µM (inactive)
- GI50 (KM-20L2): > 100 µM (inactive)
- GI50 (KM12): > 100 µM (inactive)
- GI50 (LOX IMVI): > 100 µM (inactive)
- GI50 (NCI-H226): > 100 µM (inactive)
- GI50 (OVCAR-5): > 100 µM (inactive)
- GI50 (RXF 393): > 100 µM (inactive)
- GI50 (SF-295): > 100 µM (inactive)
- GI50 (SN12C): > 100 µM (inactive)
- GI50 (SNB-19): > 100 µM (inactive)
- GI50 (SNB-75): > 100 µM (inactive)
- GI50 (TK-10): > 100 µM (inactive)
- GI50 (U-251): > 100 µM (inactive)
- GI50 (UACC-62): > 100 µM (inactive)
- GI50 (UO-31): > 100 µM (inactive)

SMILES: COc1cc2c(c(OC)c1OC)-c1ccc(SC)c(=O)cc1[C@@H](NCc1ccc([N+](=O)[O-])cc1)CC2
- GI50 (A498): 0.00461 µM (active)
- GI50 (EKVX): 0.0074 µM (active)
- GI50 (IGROV-1): 0.0371 µM (active)
- GI50 (KM-20L2): 0.00158 µM (active)
- GI50 (KM12): 0.0034 µM (active)
- GI50 (LOX IMVI): 0.00506 µM (active)
- GI50 (NCI-H226): 0.00284 µM (active)
- GI50 (OVCAR-5): 0.0074 µM (active)
- GI50 (RXF 393): 0.00241 µM (active)
- GI50 (SF-295): 0.00364 µM (active)
- GI50 (SN12C): 0.00738 µM (active)
- GI50 (SNB-19): 0.0308 µM (active)
- GI50 (SNB-75): 0.00354 µM (active)
- GI50 (TK-10): 0.0423 µM (active)
- GI50 (U-251): 0.00416 µM (active)
- GI50 (UACC-62): 0.00345 µM (active)
- GI50 (UO-31): 0.406 µM (active)

SMILES: CCCCCCCCCCCCCCCC(=O)Nc1ccn(C2OC(CO)C(O)C2O)c(=O)n1 (stereo not given)
- GI50 (A498): 22.1 µM (inactive)
- GI50 (EKVX): > 100 µM (inactive)
- GI50 (Hs-578T): > 45.2 µM (inactive)
- GI50 (IGROV-1): 35.6 µM (inactive)
- GI50 (KM-20L2): 40.3 µM (inactive)
- GI50 (KM12): 29.4 µM (inactive)
- GI50 (LOX IMVI): 5.25 µM (inactive)
- GI50 (MDA-MB-435): 27.6 µM (inactive)
- GI50 (NCI-H226): 30.5 µM (inactive)
- GI50 (NCI/ADR-RES): 7.23 µM (inactive)
- GI50 (OVCAR-5): 45.4 µM (inactive)
- GI50 (RXF 393): 24.6 µM (inactive)
- GI50 (SF-295): 51.1 µM (inactive)
- GI50 (SN12C): 31 µM (inactive)
- GI50 (SNB-19): 15.2 µM (inactive)
- GI50 (SNB-75): 30.5 µM (inactive)
- GI50 (TK-10): > 100 µM (inactive)
- GI50 (U-251): 12.4 µM (inactive)
- GI50 (UACC-62): 24.2 µM (inactive)
- GI50 (UO-31): 3.4 µM (inactive)

SMILES: C=C(C)[C@@H]1CC[C@]2(C)CC[C@]3(C)[C@H](CC[C@@H]4[C@@]5(C)CC[C@H](O)C(C)(C)[C@@H]5CC[C@]43C)[C@@H]12 [LUPEOL]
- GI50 (A498): 13.4 µM (inactive)
- GI50 (EKVX): 72.9 µM (inactive)
- GI50 (Hs-578T): 25.6 µM (inactive)
- GI50 (IGROV-1): > 54.7 µM (inactive)
- GI50 (KM-20L2): > 100 µM (inactive)
- GI50 (KM12): > 67 µM (inactive)
- GI50 (LOX IMVI): 19.5 µM (inactive)
- GI50 (MDA-MB-435): 19.4 µM (inactive)
- GI50 (NCI-H226): > 50.4 µM (inactive)
- GI50 (NCI/ADR-RES): 26.7 µM (inactive)
- GI50 (OVCAR-5): > 100 µM (inactive)
- GI50 (RXF 393): 14 µM (inactive)
- GI50 (SF-295): > 50.8 µM (inactive)
- GI50 (SN12C): 36.5 µM (inactive)
- GI50 (SNB-19): > 47.3 µM (inactive)
- GI50 (SNB-75): 38.2 µM (inactive)
- GI50 (TK-10): > 79.6 µM (inactive)
- GI50 (U-251): 21.9 µM (inactive)
- GI50 (UACC-62): > 100 µM (inactive)
- GI50 (UO-31): > 47.8 µM (inactive)
